Values quoted from earlier work as cited in US20230383297A1, “NOVEL TARGETS FOR REACTIVATION OF PRADER-WILLI SYNDROME-ASSOCIATED GENES” (Duke University, priority 2020, published 2023).

Tested on: PWS cells
Conditions: also causes DNA demethylation genome-wide

In the case of `Nc1ncn([C@H]2C[C@H](O)[C@@H](CO)O2)c(=O)n1` [5-Aza-DC], the “maternal gene expression from the PWS locus” value is given as “reactivate maternal gene expression from the PWS locus”.
